In patent US12495801B2, “Bacillus subtilis JCK-1398 strain inducing resistance in various plants, and composition and method for controlling pine wilt disease by using same” (Republic of Korea (National institute of forest science), priority 2020, dated 2025):

How the values were obtained:
Format in all cases: in vivo
[1] = test system: Xanthomonas euvesicatoria; experiment: Control effect against bacterial spot on chili pepper plants; conditions: control agrochemical, 1,000-fold diluted solution
Protocol: To 500-fold and 5,000-fold diluted solutions of a spray-dried powder of the JCK-1398 strain prepared by the same method as in Example 8 were added the surfactant Tween® 20 (250 μg/ml), and then 8- to 9-leaf stage chili pepper plants (Hungnong Seed, Bultap chili pepper) were treated with the resultant solutions at 20 ml per pot by soil drenching and foliar spraying. Each sample was applied 4 days before inoculation with Xanthomonas euvesicatoria inoculum. As for a control group, the synthetic agrochemical pesticides Sungbocycline wettable powder (oxytetracycline, SUNGBO Chemicals) and Ilpum wettable powder (oxolinic acid 20% WP, Dongbang Agro) each were applied at a predetermined amount (1,000-fold diluted solution), and as for an untreated group, only Tween® 20 (250 μg/ml) was applied in the same manner without chemical agents.
Then, Xanthomonas euvesicatoria was subjected to static culture in TSA at 30° C. for about 48 hours, and then the cells were harvested using 2 ml of sterile water. The inoculum was prepared by diluting the harvested Xanthomonas euvesicatoria to an optical density value of 0.1 at 600 nm through a UV spectrometer. […]
Each treatment was repeated three times, and each experiment was repeated twice. The disease severity was determined using an index of 0 to 6 according to Abbasi, and thus the severity of bacterial spot formed on chili pepper leaves was investigated. […]

[2] = test system: Bursaphelenchus xylophilus; experiment: Pine wilt disease control by culture, culture filtrate and cell fraction (Example 6); conditions: samples at OD 0.8, 5 ml foliar spray; EB 20 mg/ml by trunk injection
Protocol: The JCK-1398 strain was cultured by the same method as in Example 4-1 and adjusted to an optical density value of 0.8.
The culture of the JCK-1398 strain was separated into a culture filtrate and a cell fraction by centrifugation (1,300 rpm, 15 min). The precipitated cell fraction was suspended by addition of the same volume of phosphate-buffered saline used before centrifugation. Each pine tree was sufficiently pre-treated with 5 ml of Tween® 20 (250 μg/ml) and then dried for 2 hours, so as to enable each sample (a culture, a culture filtrate, and a cell fraction) to be well adsorbed into leaves. Then, each of the culture, culture filtrate, and cell fraction was dissolved in an aqueous solution containing Tween® 20 (250 μg/ml) to an optical density value of 0.8, and then placed in a fine sprayer and each pine tree was foliar-sprayed with 5 ml of each sample. The nematicidal substance emamectin benzoate as a control group was dissolved in an aqueous solution containing 10% methanol to 20 mg/ml, followed by trunk injection.

[3] = test system: Bursaphelenchus xylophilus; experiment: Pine wilt disease field tests, Pinus densiflora adult trees aged 15 years (Example 9); conditions: for Disease severity (%): adult trees, JCK-1398 = 50-fold diluted spray-dried powder foliar spray, EB = A-Pharm trunk injection; for Control value (%): foliar spray, EB by trunk injection
Protocol: Based on the above results, the field test was additionally performed using Pinus densiflora adult trees aged 15 years (root diameter: 8-11 cm, height: 6-8 m) in order to investigate the control effect of the Bacillus subtilis JCK-1398 strain against pine wilt disease in adult trees. The field test was performed twice in 2018 (first field test) and 2019 (second field test). In the first field test, a spray-dried powder of a culture of the JCK-1398 strain (prepared by the same method as in Example 8) was used, and in the second field test, a spray-dried powder of a culture of the JCK-1398 strain was formulated into JCK-1398 20% SC (emulsion) before use. The JCK-1398 20% SC formulation was formulated with a composition of a JCK-1398 spray-dried powder (20.0%), CR-NF 135B (4.5%), xanthan gum (0.03%), a defoamer (0.1%), and water (75.37%).
The spray-dried powder of the culture of the JCK-1398 strain and the JCK-1398 20% SC formulation were diluted 50-fold and 2000-fold, respectively, in an aqueous solution containing 250 μg/ml Tween® 20, and then placed in a sprayer, and each pine tree was foliar-sprayed with about 1 L of each diluted solution. The treatment by foliar spraying was performed twice at an interval of 1 month. One week after each second treatment, each pine tree was inoculated, by trunk injection, with Bursaphelenchus xylophilus at 20,000 nematodes in the first field test and at 10,000 nematodes in the second field test. For a control group, A-Pharm (emamectin benzoate 2.15%, emulsion, Syngenta) was applied at 1 ml per diameter at breast by trunk injection, and the A-Pharm was applied once 1 week before the inoculation with Bursaphelenchus xylophilus. The untreated group was treated with only 250 μg/ml Tween@ 20 without chemical agents in the same manner. The results are shown in FIGS. 7A to 7C and Tables 13 and 14.

[4] = test system: Bursaphelenchus xylophilus; experiment: Pine wilt disease seedling test of aerial spraying formulations (Example 11); conditions: EB control group; 40 days after inoculation
Protocol: In order to investigate the control effects of the Bacillus subtilis JCK-1398 strain against pine wilt disease through aerial spraying in adult trees, a novel formulation was prepared. The JCK-1398 10% SC formulation was formulated with a composition of a spray-dried powder of JCK-1398 (10.0%), CR-NF 135B (3.0%), xanthan gum (0.01%), a defoamer (0.1%), propylene glycol (5.0%), sodium benzoate (0.2%), and water (81.69%).
The JCK-1398 10% SC formulation and the JCK-1398 20% SC formulation (existing formulation, Example 9) each were prepared into 10-fold, 100-fold, and 500-fold diluted solutions, and each pine tree aged 3 years was foliar-sprayed with 100 μl ( 1/50 of the existing treatment amount) of each of the diluted solutions twice at an interval of 7 days, 2 weeks and 1 week before inoculation. Last, the inoculation with Bursaphelenchus xylophilus was performed 7 days after the second treatment with the diluted solution by the same method as in Example 4-4, and the degree of wilting was determined 40 days after the inoculation with Bursaphelenchus xylophilus.

CCn1cc(C(=O)O)c(=O)c2cc3c(cc21)OCO3 [Oxolinic acid, oxolinic acid]
Control value (%) ([1]; Folia spraying): 27.1%

CN(C)[C@@H]1C(O)=C(C(N)=O)C(=O)[C@@]2(O)C(O)=C3C(=O)c4c(O)cccc4[C@@](C)(O)[C@H]3[C@H](O)[C@@H]12 [Oxytetracyclin, oxytetracycline]
Control value (%) ([1]; Soil drenching): 20.8%

emamectin benzoate [EB]
Control value (%) [2]: 97.0%
Disease severity (%) ([3]; 1 Month after inoculation): 0%
Disease severity (%) ([3]; 2 Months after inoculation): 1%
Disease severity (%) ([3]; 3 Months after inoculation): 2.5%
Disease severity (%) ([3]; 4 Months after inoculation): 7.5%
Disease severity (%) ([3]; 5 Months after inoculation): 7.5%
Disease severity (%) ([3]; 6 Months after inoculation): 10%
Control value (%) ([3]; 2018-Year field test, powder 50-fold diluted, 20,000 nematodes): 86.2%
Control value (%) ([3]; 2019-Year field test, 20% SC 2000-fold diluted, 10,000 nematodes): 75%
Control value (%) [4]: 100.0%
